Laboratory results reported in US7728003B2, “5-oxo-5,8-dihydro-pyrido-pyrimidines as inhibitors of c-fms kinase” (Janssen Pharmaceutica N.V., priority 2005, dated 2010).

Molecular target: c-fms (Homo sapiens, UniProt P07333)
Experiment: c-fms autophosphorylation, fluorescence polarization competition immunoassay
Format: biochemical
Settings: 10 nM c-fms, 1 mM ATP; for inhibition at 0.1 µM: test concentration 0.1 μM, read-out: c-fms Autophosphorylation Percent Inhibition, % @ 0.1 μM; for inhibition at 1 µM: test concentration 1 μM, read-out: c-fms Autophosphorylation Percent Inhibition, % @ 1 μM; for IC50: average of three independent measurements
Description: The assay buffer used was 100 mM 4-(2-hydroxyethyl)piperazine 1-ethanesulfonic acid (HEPES), pH 7.5, 1 mM 1,4-dithio-DL-threitol (DTT), 0.01% (v/v) Tween-20. Compounds were diluted in assay buffer containing 4% dimethylsulfoxide (DMSO) just prior to the assay. To each well, 5 μL of compound were added followed by the addition of 3 μL of a mix containing 33 nM c-fms and 16.7 mM MgCl2 (Sigma) in assay buffer. The kinase reaction was initiated by adding 2 μL of 5 mM ATP (Sigma) in assay buffer. The final concentrations in the assay were 10 nM c-fms, 1 mM ATP, 5 mM MgCl2, 2% DMSO. Control reactions were ran in each plate: in positive and negative control wells, assay buffer (made 4% in DMSO) was substituted for the compound; in addition, positive control wells received 1.2 μL of 50 mM ethylenediaminetetraaceticacid (EDTA).
The plates were incubated at room temperature for 45 min. At the end of the incubation, the reaction was quenched with 1.2 μL of 50 mM EDTA (EDTA was not added to the positive control wells at this point; see above). Following a 5-min incubation, each well received 10 μL of a 1:1:3 mixture of anti-phosphotyrosine antibody, 10X, PTK green tracer, 10X (vortexed), FP dilution buffer, respectively (all from PanVera, cat. # P2837). The plate was covered, incubated for 30 min at room temperature and the fluorescence polarization was read on the Analyst. The instrument settings were: 485 nm excitation filter; 530 nm emission filter; Z height: middle of well; G factor: 0.93.
The percent inhibition is shown in Table 1 at the indicated test concentration. The IC50 shown in Table 2 are averages of three independent measurements.

Chain of c-fms (P07333 20-972): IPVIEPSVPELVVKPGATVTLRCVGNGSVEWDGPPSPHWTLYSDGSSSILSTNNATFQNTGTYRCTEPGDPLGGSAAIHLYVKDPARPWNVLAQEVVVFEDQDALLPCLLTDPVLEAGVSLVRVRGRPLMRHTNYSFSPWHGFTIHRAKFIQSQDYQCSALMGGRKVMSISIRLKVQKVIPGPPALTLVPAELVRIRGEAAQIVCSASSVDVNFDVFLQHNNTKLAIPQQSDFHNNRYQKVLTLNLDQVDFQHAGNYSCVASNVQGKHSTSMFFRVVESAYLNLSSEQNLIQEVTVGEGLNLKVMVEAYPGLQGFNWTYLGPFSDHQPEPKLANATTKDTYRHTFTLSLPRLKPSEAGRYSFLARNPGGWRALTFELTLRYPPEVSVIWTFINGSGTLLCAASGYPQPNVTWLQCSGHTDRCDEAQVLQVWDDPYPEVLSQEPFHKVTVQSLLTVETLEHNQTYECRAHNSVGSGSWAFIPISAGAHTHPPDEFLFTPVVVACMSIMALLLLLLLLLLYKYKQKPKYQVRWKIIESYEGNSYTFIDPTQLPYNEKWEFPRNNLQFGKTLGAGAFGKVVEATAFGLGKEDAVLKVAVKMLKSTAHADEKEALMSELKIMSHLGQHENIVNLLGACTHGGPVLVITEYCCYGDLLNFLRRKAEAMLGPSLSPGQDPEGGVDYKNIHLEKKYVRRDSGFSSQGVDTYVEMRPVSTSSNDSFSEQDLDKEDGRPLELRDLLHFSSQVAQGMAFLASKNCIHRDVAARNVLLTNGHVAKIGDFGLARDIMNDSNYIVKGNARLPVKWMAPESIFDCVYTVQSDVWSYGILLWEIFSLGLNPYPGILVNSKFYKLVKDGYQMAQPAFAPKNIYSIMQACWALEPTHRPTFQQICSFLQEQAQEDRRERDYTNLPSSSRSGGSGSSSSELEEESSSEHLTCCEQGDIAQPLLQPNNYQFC

SMILES | inhibition at 0.1 µM [%] | inhibition at 1 µM [%] | IC50 [µM]
CN1CCN(CCCNc2ncc3c(=O)c(C(N)=O)cn(-c4ccc5c(c4)CCC5)c3n2)CC1 [Cpd 1, 8-Indan-5-yl-2-[4-(4-methyl-piperazin-1-yl)-propylamino]-5-oxo-5,8-dihydro-pyrido[2,3-d]pyrimidine-6-carboxylic acid amide] | 24 | 69.1 | 
NC(=O)c1cn(-c2ccc3c(c2)CCC3)c2nc(NCCN3CCCCC3)ncc2c1=O [Cpd 2, 8-Indan-5-yl-5-oxo-2-(2-piperidin-1-yl-ethylamino)-5,8-dihydro-pyrido[2,3-d]pyrimidine-6-carboxylic acid amide] | 15 | 20 | 
NC(=O)c1cn(-c2ccc3c(c2)CCC3)c2nc(NCCCn3ccnc3)ncc2c1=O [Cpd 3, 2-(3-Imidazol-1-yl-propylamino)-8-indan-5-yl-5-oxo-5,8-dihydro-pyrido[2,3-d]pyrimidine-6-carboxylic acid amide] |  |  | 2.3
NC(=O)c1cn(-c2ccc3c(c2)CCC3)c2nc(NCCN3CCOCC3)ncc2c1=O [Cpd 4, 8-Indan-5-yl-2-(2-morpholin-4-yl-ethylamino)-5-oxo-5,8-dihydro-pyrido[2,3-d]pyrimidine-6-carboxylic acid amide] |  |  | 3.3
NC(=O)c1cn(-c2ccc3c(c2)CCC3)c2nc(NCCCN3CCOCC3)ncc2c1=O [Cpd 5] |  |  | 2.6
CN(C)CCCNc1ncc2c(=O)c(C(N)=O)cn(-c3ccc4c(c3)CCC4)c2n1 [Cpd 6, 2-(3-Dimethylamino-propylamino)-8-indan-5-yl-5-oxo-5,8-dihydro-pyrido[2,3-d]pyrimidine-6-carboxylic acid amide] |  |  | 7.1
COCCCNc1ncc2c(=O)c(C(N)=O)cn(-c3ccc4c(c3)CCC4)c2n1 [Cpd 7, 8-Indan-5-yl-2-(3-methoxy-propylamino)-5-oxo-5,8-dihydro-pyrido[2,3-d]pyrimidine-6-carboxylic acid amide] | 17 | 43 | 
NC(=O)c1cn(-c2ccc3c(c2)CCC3)c2nc(NCCCN3CCCC3=O)ncc2c1=O [Cpd 8, 8-Indan-5-yl-5-oxo-2-[3-(2-oxo-pyrrolidin-1-yl)-propylamino]-5,8-dihydro-pyrido[2,3-d]pyrimidine-6-carboxylic acid amide] | 15 | 46 | 
NC(=O)c1cn(-c2ccc3c(c2)CCC3)c2nc(NCCCN3CCCC3)ncc2c1=O [Cpd 9, 8-Indan-5-yl-5-oxo-2-(3-pyrrolidin-1-yl-propylamino)-5,8-dihydro-pyrido[2,3-d]pyrimidine-6-carboxylic acid amide] | 16 | 45 | 
COCCNc1ncc2c(=O)c(C(N)=O)cn(-c3ccc4c(c3)CCC4)c2n1 [Cpd 10, 8-Indan-5-yl-2-(2-methoxy-ethylamino)-5-oxo-5,8-dihydro-pyrido[2,3-d]pyrimidine-6-carboxylic acid amide] | 16 | 41 | 
COc1cc(CNc2ncc3c(=O)c(C(N)=O)cn(-c4ccc5c(c4)CCC5)c3n2)cc(OC)c1 [Cpd 11, 2-(3,5-Dimethoxy-benzylamino)-8-indan-5-yl-5-oxo-5,8-dihydro-pyrido[2,3-d]pyrimidine-6-carboxylic acid amide] | 0 | 50 | 
CNC(=O)c1cn(-c2ccc3c(c2)CCC3)c2nc(NCCCN(C)C)ncc2c1=O [Cpd 12, 2-(3-Dimethylamino-propylamino)-8-indan-5-yl-5-oxo-5,8-dihydro-pyrido[2,3-d]pyrimidine-6-carboxylic acid methylamide] | 2 | 13 | 
CNC(=O)c1cn(-c2ccc3c(c2)CCC3)c2nc(NCCCN3CCOCC3)ncc2c1=O [Cpd 13, 8-Indan-5-yl-2-(3-morpholin-4-yl-propylamino)-5-oxo-5,8-dihydro-pyrido[2,3-d]pyrimidine-6-carboxylic acid methylamide] | 7 | 27 | 
